Measured values taken from US8829035B2, “Agent for treatment or prevention of diseases associated with activity of neurotrophic factors” (Sumitomo Chemical Company, Limited, priority 2009, dated 2014).
Where a name gives a salt, the structure may show the parent alone.

What follows are molecules tested on activity of 200 ng/mL of NGF (NXF promoter-driven luciferase in PC12 cells) (assay: Luciferase reporter assay (NXF promoter) in PC12 cells: potentiation of NGF activity). Conditions: Test Example 1, relative luciferase activity vs 200 ng/mL NGF alone, overnight (approx. 16 hours).
Assay type: cell-based, rat
Parameters: key: +: Showed relatively weak potentiation (potentiation only exhibited at 10 μM); ++: Showed potentiation; +++: Showed particularly strong potentiation (2-fold or greater potentiation of the activity of 200 ng/mL of NGF at 1 μM)
Procedure: The forward primer 5′-[…]-3′ and the reverse primer 5′-[…]-3′ were prepared as the PCR primers according to the sequence information for the NXF gene genome sequence (Accession Nos. AB054577 and NC—000085), and the PCR method was used to isolate from approximately 5 kbp upstream from the translated region of the NXF gene promoter portion to the vicinity of the transcription start site. For this, 1 μg of mouse genomic DNA (Takara) was used as the template, and the 2-step PCR reaction was carried out for 35 cycles, the conditions for which were 95° C./1 m in the denaturing step, and 68° C./8 m in the annealing and extension steps, to obtain the PCR product. The NXF promoter fragment was inserted into the SmaI site of the pGL3 Basic vector (Promega) in the upstream of luciferase gene to prepare a reporter plasmid that would express the luciferase enzyme driven by the NXF promoter.
PC12 cells (available from the ATCC) were cultured using RPMI medium (GIBCO-BRL) with 5% FCS (GIBCO-BR) and 15% horse serum (GIBCO-BRL) added, and 1 mM in sodium pyruvate (GIBCO-BRL), at 37° C. in the presence of 5% CO2. After transfection in 10^6 of these PC12 cells for 2 days with 12 μg of the above-described reporter plasmid and 1 μg of pRC/RSV vector (Invitrogen) using the Lipofectamine 2000 reagent (Invitrogen), the medium was exchanged for fresh medium containing 40 mg/L of geneticin sulfate (GIBCO), and this was cultured continuously. Culturing was continued for approximately 1 month with medium exchange of the cultured medium containing 40 mg/L of geneticin sulfate (GIBCO) every several days, with the result that multiple colonies of the obtained cells were picked up. Among these, one of the colonies that induced luciferase activity in the presence of 40 ng/mL of NGF (Wako Pure Chemicals) was selected and used for the cells to evaluate the activity of the compounds below.
These cells were set up in 96-well plates with 80% confluence, and the luciferase reporter assay was conducted using the Promega Steady Glo luciferase assay kit. The procedure was carried out overnight (approx. 16 hours) using culture medium containing the compound, and the Steady Glo substrate solution was added to the cells in half-diluted in PBS after removal of all remaining medium containing the compound. After this was allowed to stand for 30 minutes, the respective quantity of light produced was measured with a luminometer (Envision Perkin Elmer).
The activity of the compounds for evaluation was measured as the potentiation of the activity of 200 ng/mL of NGF. For the experiment control wells, the negative control well had medium containing only a final concentration of 0.1% DMSO, the positive control well had medium containing a saturation concentration of NGF. In addition, a test well was set up containing 0.1% DMSO with 200 ng/mL of NGF added corresponding to a 0 compound concentration. When its luciferase activity was taken as a standard, the relative luciferase activity could be calculated for the test wells to which the compound solution (dissolved in DMSO and prepared to have a final DMSO concentration of 0.1%) had been added in addition to the 200 ng/mL of NGF, to find the potentiation of the activity of 200 ng/mL of NGF due to that compound.

SMILES | Activity (potentiation of NGF activity)
c1ccc(COCc2nc3cc(-c4nc5ccccc5s4)ccc3n2-c2ccccc2)cc1 [Ex. 1, 5-(benzothiazol-2-yl)-1-phenyl-2-(phenylmethoxy)methylbenzimidazole] | +
COCc1nc2cc(-c3nc4ccccc4s3)ccc2n1C1CCOCC1 [Ex. 6, 5-(benzothiazol-2-yl)-2-methoxymethyl-1-(tetrahydropyran-4-yl)benzimidazole] | ++
CN(C)Cc1nc2cc(-c3nc4ccccc4s3)ccc2n1C1CCOCC1 [Ex. 9, 5-(benzothiazol-2-yl)-2-(N,N-dimethylaminomethyl)-1-(tetrahydropyran-4-yl)benzimidazole] | ++
Cc1nc2cc(-c3nc4ccccc4o3)ccc2n1C1CCOCC1 [Ex. 11, 5-(benzoxazol-2-yl)-2-methyl-1-(tetrahydropyran-4-yl)benzimidazole] | ++
CN(C)Cc1nc2cc(-c3nc4ccccc4o3)ccc2n1C1CCOCC1 [Ex. 14, 5-(benzoxazol-2-yl)-2-(N,N-dimethylaminomethyl)-1-(tetrahydropyran-4-yl)benzimidazole] | +
COc1ccc(-n2c(C)nc3cc(-c4nc5ccccc5o4)ccc32)cc1 [Ex. 15, 5-(benzoxazol-2-yl)-1-(4-methoxyphenyl)-2-methylbenzimidazole] | +
Cc1nc2cc(-c3nc4ccccc4o3)ccc2n1C1CCCCC1 [Ex. 16, 5-(benzoxazol-2-yl)-1-cyclohexyl-2-methylbenzimidazole] | ++
Cc1nc2cc(-c3nc4ccccc4o3)ccc2n1Cc1ccccc1 [Ex. 17, 5-(benzoxazol-2-yl)-1-benzyl-2-methylbenzimidazole] | ++
Cc1nc2cc(-c3cc4ccccc4o3)ccc2n1C1CCOCC1 [Ex. 19, 5-(benzofuran-2-yl)-2-methyl-1-(tetrahydropyran-4-yl)benzimidazole] | ++
c1ccc(-c2nc3cc(-c4nc5ccccc5o4)ccc3n2C2CCOCC2)nc1 [Ex. 21, 5-(benzoxazol-2-yl)-2-(2-pyridyl)-1-(tetrahydropyran-4-yl)benzimidazole] | ++
c1ccc2oc(-c3ccc4c(c3)nc(C3CCCCC3)n4C3CCOCC3)nc2c1 [Ex. 23, 5-(benzoxazol-2-yl)-2-cyclohexyl-1-(tetrahydropyran-4-yl)benzimidazole] | ++
c1cncc(-c2nc3cc(-c4nc5ccccc5o4)ccc3n2C2CCOCC2)c1 [Ex. 24, 5-(benzoxazol-2-yl)-2-(3-pyridyl)-1-(tetrahydropyran-4-yl)benzimidazole] | ++
c1ccc(-c2nc3cc(-c4nc5ccccc5o4)ccc3n2C2CCOCC2)cc1 [Ex. 25, 5-(benzoxazol-2-yl)-2-phenyl-1-(tetrahydropyran-4-yl)benzimidazole] | ++
c1ccc2oc(-c3ccc4c(c3)nc(-c3ccncc3)n4C3CCOCC3)nc2c1 [Ex. 26, 5-(benzoxazol-2-yl)-2-(4-pyridyl)-1-(tetrahydropyran-4-yl)benzimidazole] | ++
FC(F)(F)c1nc2cc(-c3nc4ccccc4o3)ccc2n1C1CCOCC1 [Ex. 27, 5-(benzoxazol-2-yl)-1-(tetrahydropyran-4-yl)-2-trifluoromethylbenzimidazole] | ++
Cc1nc2cc(-c3nc4ccccc4o3)ccc2n1C(C)(C)C [Ex. 29, 5-(benzoxazol-2-yl)-2-methyl-1-tert-butylbenzimidazole] | ++
COc1ccccc1-n1c(C)nc2cc(-c3nc4ccccc4o3)ccc21 [Ex. 30, 5-(benzoxazol-2-yl)-1-(2-methoxyphenyl)-2-methylbenzimidazole] | ++
COc1cccc(-n2c(C)nc3cc(-c4nc5ccccc5o4)ccc32)c1 [Ex. 31, 5-(benzoxazol-2-yl)-1-(3-methoxyphenyl)-2-methylbenzimidazole] | ++
c1ccc(CNCc2nc3cc(-c4nc5ccccc5o4)ccc3n2C2CCOCC2)cc1 [Ex. 32, 5-(benzoxazol-2-yl)-2-benzylaminomethyl-1-(tetrahydropyran-4-yl)benzimidazole] | ++
CCOC(=O)N1CCC(n2c(C)nc3cc(-c4nc5ccccc5o4)ccc32)CC1 [Ex. 33, 5-(benzoxazol-2-yl)-1-((1-ethoxycarbonyl)piperidine-4-yl)-2-methylbenzimidazole] | ++
Cc1nc2cc(-c3nc4ccccc4o3)ccc2n1C1CCNCC1 [Ex. 35, 5-(benzoxazol-2-yl)-1-(piperidine-4-yl)-2-methylbenzimidazole] | ++
Cc1nc2cc(-c3cc4ccccc4n3C(=O)OC(C)(C)C)ccc2n1C1CCOCC1 [Ex. 37, 5-(N-t-butoxycarbonylindol-2-yl)-2-methyl-1-(tetrahydropyran-4-yl)benzimidazole] | ++
Cc1nc2cc(-c3cc4ccccc4[nH]3)ccc2n1C1CCOCC1 [Ex. 38, 5-(indol-2-yl)-1-(tetrahydropyran-4-yl)-2-methylbenzimidazole] | ++
c1ccc2oc(-c3ccc4c(c3)nc(-c3ncc[nH]3)n4C3CCOCC3)nc2c1 [Ex. 44, 5-(benzoxazol-2-yl)-2-(imidazol-2-yl)-1-(tetrahydropyran-4-yl)benzimidazole] | ++

Same assay, conditions: Test Example 4, same manner as Test Example 1, relative luciferase activity vs 200 ng/mL NGF alone

SMILES | Activity (potentiation of NGF activity)
Cc1nc2cc(-c3nc4ccccc4o3)ccc2n1CCc1ccccc1 [Ex. 52, 5-(benzoxazol-2-yl)-2-methyl-1-(2-phenylethyl)benzimidazole] | ++
Cc1nc2cc(-c3nc4ccccc4o3)ccc2n1C1CC1 [Ex. 53, 5-(benzoxazol-2-yl)-2-methyl-1-cyclopropylbenzimidazole] | ++
Cc1nc2cc(-c3nc4ccccc4o3)ccc2n1CCNC(=O)OC(C)(C)C [Ex. 55, 5-(benzoxazol-2-yl)-1-(2-(tert-butoxycarbonylamino)ethyl)-2-methylbenzimidazole] | ++
Cc1nc2cc(-c3nc4ccccc4o3)ccc2n1CCN [Ex. 56, 1-(2-aminoethyl)-5-(benzoxazol-2-yl)-2-methylbenzimidazole hydrochloride] | ++
CC(C)(C)OC(=O)NCc1nc2cc(-c3nc4ccccc4o3)ccc2n1C1CCOCC1 [Ex. 58, 5-(benzoxazol-2-yl)-2-(tert-butoxycarbamidomethyl)-1-(tetrahydropyran-4-yl)benzimidazole] | ++
Cc1nc2cc(-c3nc4cc([N+](=O)[O-])ccc4o3)ccc2n1C1CCOCC1 [Ex. 60, 5-(5-nitrobenzoxazol-2-yl)-2-methyl-1-(tetrahydropyran-4-yl)benzimidazole] | ++
c1ccc(Cc2nc3cc(-c4nc5ccccc5o4)ccc3n2C2CCOCC2)cc1 [Ex. 61, 5-(benzoxazol-2-yl)-2-benzyl-1-(tetrahydropyran-4-yl)benzimidazole] | ++
C(=C\c1nc2cc(-c3nc4ccccc4o3)ccc2n1C1CCOCC1)/c1ccccc1 [Ex. 62, 5-(benzoxazol-2-yl)-2-trans-cinnam-1-(tetrahydropyran-4-yl)benzimidazole] | ++
c1ccc2oc(-c3ccc4c(c3)nc(-c3ccoc3)n4C3CCOCC3)nc2c1 [Ex. 64, 5-(benzoxazol-2-yl)-2-(furan-3-yl)-1-(tetrahydropyran-4-yl)benzimidazole] | ++
COc1ccc2oc(-c3ccc4c(c3)nc(C)n4C3CCOCC3)nc2c1 [Ex. 66, 5-(5-methoxybenzoxazol-2-yl)-2-methyl-1-(tetrahydropyran-4-yl)benzimidazole] | ++
